pKd: −log10 of the molar value. Where a SMILES comes first, the peptide text is derived from it.
Target: T1, β-catenin (Homo sapiens, UniProt P35222)
T1 sequence (P35222 1-781): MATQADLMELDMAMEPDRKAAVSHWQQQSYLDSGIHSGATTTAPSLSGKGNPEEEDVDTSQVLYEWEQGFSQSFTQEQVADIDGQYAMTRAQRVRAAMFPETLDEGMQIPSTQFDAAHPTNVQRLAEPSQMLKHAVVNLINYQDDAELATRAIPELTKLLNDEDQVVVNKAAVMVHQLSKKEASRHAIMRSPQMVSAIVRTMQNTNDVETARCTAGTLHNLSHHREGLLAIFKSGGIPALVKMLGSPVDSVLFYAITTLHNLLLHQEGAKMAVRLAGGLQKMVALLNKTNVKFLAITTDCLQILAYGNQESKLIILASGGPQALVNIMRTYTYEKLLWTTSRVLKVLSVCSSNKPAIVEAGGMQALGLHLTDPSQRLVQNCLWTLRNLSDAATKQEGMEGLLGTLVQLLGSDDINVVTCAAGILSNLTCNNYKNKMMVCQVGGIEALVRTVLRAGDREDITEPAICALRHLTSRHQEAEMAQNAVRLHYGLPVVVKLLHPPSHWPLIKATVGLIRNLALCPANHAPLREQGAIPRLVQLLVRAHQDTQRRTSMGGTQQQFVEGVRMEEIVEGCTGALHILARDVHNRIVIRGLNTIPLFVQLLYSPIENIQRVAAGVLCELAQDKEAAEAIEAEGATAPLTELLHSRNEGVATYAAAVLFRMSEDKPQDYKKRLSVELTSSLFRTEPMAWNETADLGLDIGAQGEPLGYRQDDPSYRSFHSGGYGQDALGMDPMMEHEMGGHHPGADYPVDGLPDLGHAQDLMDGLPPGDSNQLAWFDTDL
Test: KD50 measurement using competitive fluorescence polarization (FP) with labelled TCF4
Format: binding
Conditions: for pKd / β-Cat FP Hill slope: fluorescence polarization, β-catenin; for pKd: read-out: β-Cat FP KD
Outline: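 First, β-catenin at 100 nM is mixed with 5 nM labelled TCF4 at room temperature. Next, compound is added across serial dilutions (10 nM to 30 uM). Finally, fluorescence polarization is measured (ex 470 nm, em 520 nm); experiments are done three times.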

Compound: CCCCCCCCCCCC(=O)N[C@@H](Cc1c[nH]c2ccccc12)C(=O)N(C)[C@@H](C)C(=O)N[C@H]1CCC(=O)NCCCC[C@@H](C(=O)N[C@@H](CCC(=O)O)C(=O)N[C@@H](Cc2c[nH]cn2)C(=O)N[C@H](C(=O)N[C@@H](CCC(N)=O)C(=O)N[C@@H](CCCNC(=N)N)C(=O)N[C@H](C(=O)N[C@@H](Cc2c[nH]c3ccccc23)C(=O)NCC(N)=O)C(C)C)C(C)C)NC(=O)[C@H](CC(C)C)NC(=O)[C@H]([C@@H](C)CC)NC(=O)[C@H](CO)NC1=O [compound 451] (HELM PEPTIDE1{[CCCCCCCCCCCC(=O)[*:2]].W.[meA].E.S.I.L.K.E.H.V.Q.R.V.W.G.[am]}$PEPTIDE1,PEPTIDE1,4:R3-8:R3$$$V2.0)
- pKd: 5.00 to 6.00

Compound: CC[C@H](C)[C@H](NC(=O)[C@H](CC(C)C)NC(=O)[C@@H](NC(=O)[C@H](Cc1c[nH]c2ccccc12)NC(=O)[C@H](CCSC)N(C)C)[C@@H](C)CC)C(=O)N[C@@H](CO)C(=O)N[C@@H](Cc1ccccc1)C(=O)N[C@@H](Cc1c[nH]c2ccccc12)C(=O)NCC(=O)O [compound 264] (HELM PEPTIDE1{[CSCC[C@@H](C(=O)[*:2])N(C)C].W.I.L.I.S.F.W.G}$$$$V2.0)
- β-Cat FP Hill slope: 0.7
- pKd: 5.00 to 6.00

Compound: CC[C@H](C)[C@H](NC(=O)[C@H](CC(C)C)NC(=O)[C@@H]1CCC(=O)NCCCC[C@H](N)C(=O)N[C@@H](Cc2c[nH]c3ccccc23)C(=O)N1)C(=O)N[C@@H](CO)C(=O)N[C@@H](Cc1ccccc1)C(=O)N[C@@H](Cc1c[nH]c2ccccc12)C(=O)NCC(=O)O [compound 232] (HELM PEPTIDE1{K.W.E.L.I.S.F.W.G}$PEPTIDE1,PEPTIDE1,1:R3-3:R3$$$V2.0)
- β-Cat FP Hill slope: 2.73
- pKd: 5.00 to 6.00

Compound: CC[C@H](C)[C@H](NC(=O)[C@H](CO)NC(=O)[C@H](CCC(N)=O)NC(=O)[C@@H]1CCCN1C(=O)[C@H](Cc1c[nH]c2ccccc12)NC(C)=O)C(=O)N[C@@H](CC(C)C)C(=O)N[C@@H](CC(=O)O)C(=O)N[C@H]1CCCCNC(=O)C[C@@H](C(=O)N[C@H](C(=O)N[C@@H](Cc2c[nH]c3ccccc23)C(N)=O)C(C)C)NC(=O)[C@H](CCC(N)=O)NC(=O)[C@H](C2CCCCC2)NC(=O)[C@H](Cc2c[nH]cn2)NC1=O [compound 462] (HELM PEPTIDE1{[ac].W.P.Q.S.I.L.D.K.H.[O=C([C@@H](N[*:1])C1CCCCC1)[*:2]].Q.D.V.W.[am]}$PEPTIDE1,PEPTIDE1,9:R3-13:R3$$$V2.0)
- β-Cat FP Hill slope: 0.76
- pKd: > 6.40

Compound: CC[C@H](C)[C@H](NC(=O)[C@H](CC(C)C)NC(=O)[C@H](Cc1ccccc1)NC(=O)[C@H](Cc1c[nH]c2ccccc12)NC(=O)[C@@H](N)CCSC)C(=O)N[C@@H](CO)C(=O)N[C@@H](C)C(=O)N[C@@H](Cc1c[nH]c2ccccc12)C(=O)NCC(=O)O [compound 9] (H-MWFLISAWG-OH)
- β-Cat FP Hill slope: 0.51
- pKd: 5.00 to 6.00

Compound: CC[C@H](C)[C@H](NC(=O)[C@H](CO)NC(=O)[C@H](CCC(N)=O)NC(=O)[C@@H]1CCCN1C(=O)[C@H](Cc1c[nH]c2ccccc12)NC(C)=O)C(=O)N[C@@H](CC(C)C)C(=O)N[C@@H](CC(=O)O)C(=O)N[C@H]1CCC(=O)NCCCC[C@@H](C(=O)N[C@H](C(=O)N[C@@H](Cc2c[nH]c3ccccc23)C(N)=O)C(C)C)NC(=O)[C@H](CCC(N)=O)NC(=O)[C@H](C2CCCCC2)NC(=O)[C@H](Cc2c[nH]cn2)NC1=O [compound 468] (HELM PEPTIDE1{[ac].W.P.Q.S.I.L.D.E.H.[O=C([C@@H](N[*:1])C1CCCCC1)[*:2]].Q.K.V.W.[am]}$PEPTIDE1,PEPTIDE1,9:R3-13:R3$$$V2.0)
- β-Cat FP Hill slope: 0.86
- pKd: > 6.40

Compound: CC[C@H](C)[C@@H]1NC(=O)[C@@H](NC(=O)[C@H](CCC(N)=O)NC(=O)[C@H](C)N(C)C(=O)[C@H](Cc2c[nH]c3ccccc23)NC(C)=O)CCC(=O)NCCCC[C@@H](C(=O)N[C@@H](Cc2c[nH]cn2)C(=O)N[C@H](C(=O)N[C@@H](CCC(N)=O)C(=O)N[C@@H](CCCNC(=N)N)C(=O)N[C@H](C(=O)N[C@@H](Cc2c[nH]c3ccccc23)C(=O)NCC(N)=O)C(C)C)C2CCCCC2)NC(=O)[C@H](CC(=O)O)NC(=O)[C@H](CC(C)C)NC1=O [compound 426] (HELM PEPTIDE1{[ac].W.[meA].Q.E.I.L.D.K.H.[O=C([C@@H](N[*:1])C1CCCCC1)[*:2]].Q.R.V.W.G.[am]}$PEPTIDE1,PEPTIDE1,5:R3-9:R3$$$V2.0)
- β-Cat FP Hill slope: 0.91
- pKd: > 6.40

Compound: CCCCCCCCCCCC(=O)N[C@@H](Cc1c[nH]c2ccccc12)C(=O)N(C)[C@@H](C)C(=O)N[C@@H](CCC(N)=O)C(=O)N[C@H]1CCCCNC(=O)CC[C@@H](C(=O)N[C@@H](Cc2c[nH]cn2)C(=O)N[C@H](C(=O)N[C@@H](CCC(N)=O)C(=O)N[C@@H](CCCNC(=N)N)C(=O)N[C@H](C(=O)N[C@@H](Cc2c[nH]c3ccccc23)C(N)=O)C(C)C)C2CCCCC2)NC(=O)[C@H](CC(=O)O)NC(=O)[C@H](CC(C)C)NC(=O)[C@H]([C@@H](C)CC)NC1=O [compound 447] (HELM PEPTIDE1{[CCCCCCCCCCCC(=O)[*:2]].W.[meA].Q.K.I.L.D.E.H.[O=C([C@@H](N[*:1])C1CCCCC1)[*:2]].Q.R.V.W.[am]}$PEPTIDE1,PEPTIDE1,5:R3-9:R3$$$V2.0)
- pKd: > 6.40

Compound: CCCCCCCCCCCC(=O)N(C)[C@@H](C)C(=O)N[C@@H](CCC(N)=O)C(=O)N[C@H]1CCCCNC(=O)CC[C@@H](C(=O)N[C@@H](Cc2c[nH]cn2)C(=O)N[C@H](C(=O)N[C@@H](CCC(N)=O)C(=O)N[C@@H](CCCNC(=N)N)C(=O)N[C@H](C(=O)N[C@@H](Cc2c[nH]c3ccccc23)C(=O)NCC(N)=O)C(C)C)C2CCCCC2)NC(=O)[C@H](CC(N)=O)NC(=O)[C@H](CC(C)C)NC(=O)[C@H]([C@@H](C)CC)NC1=O [compound 434] (HELM PEPTIDE1{[CCCCCCCCCCCC(=O)[*:2]].[meA].Q.K.I.L.N.E.H.[O=C([C@@H](N[*:1])C1CCCCC1)[*:2]].Q.R.V.W.G.[am]}$PEPTIDE1,PEPTIDE1,4:R3-8:R3$$$V2.0)
- pKd: > 6.40

Compound: CC[C@H](C)[C@H](NC(=O)[C@H](CC(C)C)NC(=O)[C@@H](NC(=O)[C@H](Cc1c[nH]c2ccccc12)NC(C)=O)[C@@H](C)CC)C(=O)N[C@@H](C)C(=O)N[C@@H](Cc1ccccc1)C(=O)N[C@@H](Cc1c[nH]c2ccccc12)C(=O)NCC(=O)O [compound 263] (Ac-WILIAFWG-OH)
- β-Cat FP Hill slope: 3
- pKd: 6.00 to 6.40

Compound: CC[C@H](C)[C@H](NC(=O)[C@H](CC(C)C)NC(=O)[C@@H](NC(=O)[C@H](Cc1c[nH]c2ccccc12)NC(=O)[C@H](CCSC)NC(C)=O)[C@@H](C)CC)C(=O)N[C@@H](CO)C(=O)N[C@@H](Cc1ccccc1)C(=O)N[C@@H](Cc1c[nH]c2ccccc12)C(=O)NCCCC(=O)O [compound 240] (HELM PEPTIDE1{[ac].M.W.I.L.I.S.F.W.[O=C(O)CCCN[*:1]]}$$$$V2.0)
- β-Cat FP Hill slope: 1.44
- pKd: > 6.40

Compound: CCCCCCCCCCCC(=O)N[C@@H](Cc1c[nH]c2ccccc12)C(=O)N(C)[C@@H](C)C(=O)N[C@@H](CCC(N)=O)C(=O)N[C@@H](CO)C(=O)N[C@H](C(=O)N[C@@H](CC(C)C)C(=O)N[C@@H](CC(=O)O)C(=O)N[C@H]1CCCCNC(=O)C[C@@H](C(=O)N[C@H](C(=O)N[C@@H](Cc2c[nH]c3ccccc23)C(N)=O)C(C)C)NC(=O)[C@H](CCC(N)=O)NC(=O)[C@H](C2CCCCC2)NC(=O)[C@H](Cc2c[nH]cn2)NC1=O)[C@@H](C)CC [compound 461] (HELM PEPTIDE1{[CCCCCCCCCCCC(=O)[*:2]].W.[meA].Q.S.I.L.D.K.H.[O=C([C@@H](N[*:1])C1CCCCC1)[*:2]].Q.D.V.W.[am]}$PEPTIDE1,PEPTIDE1,9:R3-13:R3$$$V2.0)
- pKd: > 6.40

Compound: CC[C@H](C)[C@@H]1NC(=O)[C@@H](NC(=O)[C@H](CCC(N)=O)NC(=O)[C@H](C)N(C)C(=O)[C@H](Cc2c[nH]c3ccccc23)NC(C)=O)CCCCNC(=O)CC[C@@H](C(=O)N[C@@H](Cc2c[nH]cn2)C(=O)N[C@H](C(=O)N[C@@H](CCC(N)=O)C(=O)N[C@@H](CCCNC(=N)N)C(=O)N[C@H](C(=O)N[C@@H](Cc2c[nH]c3ccccc23)C(=O)NCC(N)=O)C(C)C)C2CCCCC2)NC(=O)[C@H](CC(=O)O)NC(=O)[C@H](CC(C)C)NC1=O [SEQ ID NO: 404, cyclo-AcNH-W-NmeA-QK*ILDE*H-Chg-QRVWG-NH2] (HELM PEPTIDE1{[ac].W.[meA].Q.K.I.L.D.E.H.[O=C([C@@H](N[*:1])C1CCCCC1)[*:2]].Q.R.V.W.G.[am]}$PEPTIDE1,PEPTIDE1,5:R3-9:R3$$$V2.0)
- Binding to β-catenin (fluorescence polarization) (5 nM labelled TCF4, 100 nM β-catenin, 10 nM to 30 uM inhibitor): binds β-catenin in a concentration-dependent manner

Source: patent US12441768B2, “Compositions and methods for treating endometriosis” (EndoMet Biosciences, Inc., priority 2018, dated 2025)
